# Results from patent US4772586A, “Novel derivatives of arginine vasopressin antagonists” (Medical College of Ohio, priority 1986, dated 1988).
# Bridges are numbered along the chain shown (N, C = ends). Where no end group is shown, it is not given here.
# Legend:
# Assay type in all cases: in vivo
# [1] = system: vasopressor response to arginine vasopressin; assay: Antagonism to the vasopressor response (Anti-VP); details: Table 1
# In short: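 In vivo antagonism of arginine vasopressin pressor response per Dyckes et al. Effective dose (nmol/kg) is the antagonist dose making the response to 2x agonist units, injected 20 min later, equal that to 1x units. pA2 is the negative log of effective dose divided by 67 ml/kg distribution volume.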
# [2] = system: vasopressor response; assay: Vasopressor (VP) agonistic activity; details: Table 1; vasopressor agonism; ^+ = weak partial agonistic activity not clearly related to dose
# [3] = system: ethanol-anesthesized water-loaded rats; assay: Activity as antidiuretic agonists, intravenous injection; details: Table 1; antidiuretic agonism, i.v.; ^+ = weak partial agonistic activity not clearly related to dose
# Procedure: Activity as antidiuretic agonists was determined by intravenous injection of the compounds being evaluated in ethanol-anesthesized water-loaded rats in accordance with Sawyer, Endocrinology, vol. 63 (1958) at 694. Antagonism of the antidiuretic response to subsequent injections of arginine vasopressin was tested by the method of Sawyer et al., Science, vol. 212 (1981) at 49.
substance,measurement,setting,value
"9-desglycine-argoinine vasopressin (CYFQNCPR; disulfide 1-6 (inferred); ends not checked; UniProt P01185 20-27, looked up, fragment) [desGly^9 AVP]",Anti-VP ED,[1]; effective dose,68 ± 16 nmol/kg
same,Anti-VP pA2,[1]; estimated in vivo pA2,6.09 ± 0.10
same,Agonistic Activities VP,[2],< 0.05 units/mg
same,Agonistic Activities ADH,[3],164 ± 4 units/mg
